PubChem BioAssay AID248 (DTP/NCI, 2004)
Values joined by “and” are separate entries in the source; they are usually repeats but may differ in a detail not shown here. Equal entries are not always repeated. Toxic doses and inconclusive results are not listed. Rule as the data show it: active = T/C of 150% or more; inactive = T/C below 125%.

System: L1210 leukemia ip in BDF1 mice, survival T/C
Test: NCI In Vivo Anticancer Drug Screen. Data for tumor model L1210 Leukemia (intraperitoneal) in B6D2F1 (BDF1) mice
Details: endpoint: mean survival time, higher = longer survival
Procedure, shortened: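 Mice bearing the transplanted tumor received compound or vehicle. Survival of the treated group was divided by that of the vehicle-treated control group to give the ratio.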

[1] = dose: 100.0 mg/kg/injection, schedule: Q01DX009 (ip), vehicle: saline with Tween-80
[2] = dose: 100.0 mg/kg/injection, schedule: Q04DX002 (ip), vehicle: saline with Tween-80
[3] = dose: 200.0 mg/kg/injection, schedule: Q01DX009 (ip), vehicle: saline with Tween-80
[4] = dose: 200.0 mg/kg/injection, schedule: Q04DX002 (ip), vehicle: saline with Tween-80
[5] = dose: 400.0 mg/kg/injection, schedule: Q01DX009 (ip), vehicle: saline with Tween-80
[6] = dose: 400.0 mg/kg/injection, schedule: Q04DX002 (ip), vehicle: saline with Tween-80
[7] = dose: 100.0 mg/kg/injection, schedule: Q04DX003 (ip), vehicle: saline with Tween-80
[8] = dose: 200.0 mg/kg/injection, schedule: Q04DX003 (ip), vehicle: saline with Tween-80
[9] = dose: 400.0 mg/kg/injection, schedule: Q04DX003 (ip), vehicle: saline with Tween-80
[10] = dose: 50.0 mg/kg/injection, schedule: Q04DX002 (ip), vehicle: saline
[11] = dose: 100.0 mg/kg/injection, schedule: Q04DX002 (ip), vehicle: saline
[12] = dose: 200.0 mg/kg/injection, schedule: Q04DX002 (ip), vehicle: saline
[13] = dose: 100.0 mg/kg/injection, schedule: Q04DX003 (ip), vehicle: Klucel (hydroxypropylcellulose) (HPC)
[14] = dose: 200.0 mg/kg/injection, schedule: Q04DX003 (ip), vehicle: Klucel (hydroxypropylcellulose) (HPC)
[15] = dose: 400.0 mg/kg/injection, schedule: Q04DX003 (ip), vehicle: Klucel (hydroxypropylcellulose) (HPC)
[16] = dose: 100.0 mg/kg/injection, schedule: Q01DX009 (ip), vehicle: saline
[17] = dose: 200.0 mg/kg/injection, schedule: Q01DX009 (ip), vehicle: saline
[18] = dose: 400.0 mg/kg/injection, schedule: Q01DX009 (ip), vehicle: saline
[19] = dose: 100.0 mg/kg/injection, schedule: Q01DX001 (ip), vehicle: saline with Tween-80
[20] = dose: 200.0 mg/kg/injection, schedule: Q01DX001 (ip), vehicle: saline with Tween-80
[21] = dose: 400.0 mg/kg/injection, schedule: Q01DX001 (ip), vehicle: saline with Tween-80

Measured: T/C

COc1cc(/C=C(/C#N)C(N)=O)cc(OC)c1OC
inactive: [1] 93 % of control | [2] 97 % of control | [3] 93 % of control | [4] 93 % of control | [5] 95 % of control | [6] 97 % of control

Cc1c(Cl)cccc1NC(=O)/C=C/C(=O)O
inactive: [1] 98 % of control | [7] 95 % of control | [3] 94 % of control | [8] 93 % of control | [9] 103 % of control

CC1CCCN(P(c2ccccc2)N2CCCC(C)C2)C1 (stereo not given)
inactive: dose: 100.0 mg/kg/injection, schedule: Q04DX002 (sc), vehicle: olive oil, sesame oil, peanut oil 97 % of control | dose: 200.0 mg/kg/injection, schedule: Q04DX002 (sc), vehicle: olive oil, sesame oil, peanut oil 100 % of control | dose: 400.0 mg/kg/injection, schedule: Q04DX002 (sc), vehicle: olive oil, sesame oil, peanut oil 100 % of control

O=C1OC2C(O)C(CO)OC2n2c1cc(=O)[nH]c2=O (stereo not given)
inactive: dose: 100.0 mg/kg/injection, schedule: Q01DX005 (ip), vehicle: saline 111 % of control | dose: 200.0 mg/kg/injection, schedule: Q01DX005 (ip), vehicle: saline 104 % of control

O=c1[nH]cc(Cc2ccc(O)cc2)c(=O)[nH]1
inactive: dose: 50.0 mg/kg/injection, schedule: Q01DX005 (ip), vehicle: saline with Tween-80 106 % of control | dose: 100.0 mg/kg/injection, schedule: Q01DX005 (ip), vehicle: saline with Tween-80 101 % of control | dose: 200.0 mg/kg/injection, schedule: Q01DX005 (ip), vehicle: saline with Tween-80 98 % of control | dose: 400.0 mg/kg/injection, schedule: Q01DX005 (ip), vehicle: saline with Tween-80 109 % of control

Cc1cc(C)nc(NCCCCC(N)C(=O)O)n1 (stereo not given)
inactive: [10] 104 % of control | [11] 104 % of control | [12] 101 % of control

COc1ccccc1CCN
inactive: [11] 112 % of control | [12] 93 % of control and 108 % of control

CC1(C)c2ccccc2C(C)(O)c2ccccc21
inactive: [1] 96 % of control | dose: 100.0 mg/kg/injection, schedule: Q04DX003 (ip), vehicle: other 104 % of control | [3] 93 % of control | dose: 200.0 mg/kg/injection, schedule: Q04DX003 (ip), vehicle: other 94 % of control | [5] 93 % of control | dose: 400.0 mg/kg/injection, schedule: Q04DX003 (ip), vehicle: other 107 % of control

N#C/C(=C/c1ccccc1Cl)C(N)=O
inactive: [1] 100 % of control | dose: 100.0 mg/kg/injection, schedule: Q04DX002 (ip), vehicle: Klucel (hydroxypropylcellulose) (HPC) 100 % of control | [3] 94 % of control | dose: 200.0 mg/kg/injection, schedule: Q04DX002 (ip), vehicle: Klucel (hydroxypropylcellulose) (HPC) 93 % of control | [5] 94 % of control | dose: 400.0 mg/kg/injection, schedule: Q04DX002 (ip), vehicle: Klucel (hydroxypropylcellulose) (HPC) 107 % of control

Cc1cc(Cl)nc(Cl)n1
inactive: dose: 25.0 mg/kg/injection, schedule: Q04DX002 (ip), vehicle: saline 88 % of control | [10] 98 % of control | [11] 98 % of control

O=S(=O)(O)c1cccc2c(S(=O)(=O)O)cccc12
inactive: [13] 107 % of control | [14] 100 % of control | [15] 97 % of control

COC1CCC2CCN(C)C(Cc3ccc(Oc4ccc(CC5C6CC(OC)CCC6CCN5C)cc4)cc3)C2C1 (stereo not given)
inactive: dose: 0.39 mg/kg/injection, schedule: Q01DX009 (ip), vehicle: saline with Tween-80 96 % of control | dose: 0.78 mg/kg/injection, schedule: Q01DX009 (ip), vehicle: saline with Tween-80 96 % of control and 108 % of control | dose: 1.56 mg/kg/injection, schedule: Q01DX009 (ip), vehicle: saline with Tween-80 108 % of control | dose: 3.13 mg/kg/injection, schedule: Q01DX009 (ip), vehicle: saline with Tween-80 102 % of control

COc1cccc(OC)c1OC(=O)Nc1ccccc1C(F)(F)F
inactive: [16] 98 % of control | [17] 98 % of control | [18] 100 % of control

CN(CC(=O)O)Cc1ccccc1
inactive: [16] 93 % of control | dose: 100.0 mg/kg/injection, schedule: Q04DX003 (ip), vehicle: saline 104 % of control | [17] 88 % of control | dose: 200.0 mg/kg/injection, schedule: Q04DX003 (ip), vehicle: saline 109 % of control | [18] 93 % of control | dose: 400.0 mg/kg/injection, schedule: Q04DX003 (ip), vehicle: saline 102 % of control

O=C(CCc1ccccc1)Nc1ccccc1
inactive: dose: 50.0 mg/kg/injection, schedule: Q01DX001 (ip), vehicle: saline 96 % of control | dose: 100.0 mg/kg/injection, schedule: Q01DX001 (ip), vehicle: saline 106 % of control | [13] 97 % of control | dose: 200.0 mg/kg/injection, schedule: Q01DX001 (ip), vehicle: saline 101 % of control | [14] 102 % of control | dose: 400.0 mg/kg/injection, schedule: Q01DX001 (ip), vehicle: saline 102 % of control | [15] 89 % of control

CCc1nc(N)nc(N)c1-c1ccc(Cl)cc1
inactive: dose: 22.0 mg/kg/injection, schedule: Q01DX Z (ip), vehicle: carboxymethylcellulose (CMC) 120 % of control | dose: 25.0 mg/kg/injection, schedule: Q01DX015 (ip), vehicle: carboxymethylcellulose (CMC) 110 % of control | dose: 35.0 mg/kg/injection, schedule: Q01DX Z (ip), vehicle: carboxymethylcellulose (CMC) 118 % of control | dose: 50.0 mg/kg/injection, schedule: Q01DX015 (ip), vehicle: carboxymethylcellulose (CMC) 116 % of control | dose: 75.0 mg/kg/injection, schedule: Q01DX Z (ip), vehicle: carboxymethylcellulose (CMC) 91 % of control | dose: 200.0 mg/kg/injection, schedule: Q01DX015 (ip), vehicle: carboxymethylcellulose (CMC) 104 % of control

Cc1ccccc1C(=O)C(=O)c1ccccc1C
inactive: dose: 100.0 mg/kg/injection, schedule: Q01DX009 (ip), vehicle: Klucel (hydroxypropylcellulose) (HPC) 95 % of control | dose: 200.0 mg/kg/injection, schedule: Q01DX009 (ip), vehicle: Klucel (hydroxypropylcellulose) (HPC) 106 % of control | dose: 400.0 mg/kg/injection, schedule: Q01DX009 (ip), vehicle: Klucel (hydroxypropylcellulose) (HPC) 93 % of control

CC(=O)OCC1OC(n2cnc3c(F)nc(F)nc32)C(OC(C)=O)C1OC(C)=O (stereo not given)
inactive: dose: 100.0 mg/kg/injection, schedule: Q01DX001 (sc), vehicle: olive oil, sesame oil, peanut oil 104 % of control | dose: 200.0 mg/kg/injection, schedule: Q01DX001 (sc), vehicle: olive oil, sesame oil, peanut oil 104 % of control | dose: 400.0 mg/kg/injection, schedule: Q01DX001 (sc), vehicle: olive oil, sesame oil, peanut oil 100 % of control

O=c1oc(-c2ccccc2)c(-c2ccccc2)c(-c2ccccc2)c1-c1ccccc1
inactive: [19] 103 % of control | [20] 91 % of control | [21] 91 % of control

Cc1ccc(Nc2nc(N)nc(N)c2Cl)cc1
inactive: dose: 50.0 mg/kg/injection, schedule: Q01DX009 (ip), vehicle: saline with Tween-80 94 % of control | [1] 91 % of control

CC(C)=NOCCCCON=C(C)C
inactive: [19] 101 % of control | [2] 95 % of control and 103 % of control | [20] 100 % of control | [4] 109 % of control and 88 % of control | [21] 92 % of control | [6] 103 % of control and 88 % of control

COC(=O)/C=C\C=C(\CBr)C(=O)OC
inactive: dose: 6.25 mg/kg/injection, schedule: Q01DX009 (ip), vehicle: saline 104 % of control | dose: 6.25 mg/kg/injection, schedule: Q04DX003 (ip), vehicle: saline sonified 103 % of control | dose: 12.5 mg/kg/injection, schedule: Q01DX009 (ip), vehicle: saline 96 % of control | dose: 12.5 mg/kg/injection, schedule: Q04DX003 (ip), vehicle: saline sonified 97 % of control | dose: 25.0 mg/kg/injection, schedule: Q01DX009 (ip), vehicle: saline 110 % of control | dose: 25.0 mg/kg/injection, schedule: Q04DX003 (ip), vehicle: saline sonified 95 % of control

CCC(S)C(=O)Nc1ccccc1 (stereo not given)
inactive: [7] 107 % of control | [8] 90 % of control | [9] 91 % of control
